A short description of the data set: Water solubility. Type of data set: physicochemical. To be noted: in words.

As to `COC(=O)c1ccc2c(c1)NC(=O)/C2=C(\Nc1ccc(N(C)C(=O)CN2CCN(C)CC2)cc1)c1ccccc1` [nintedanib (free base)], the solubility in water result was “very poor”.
